Laboratory results from patent US12595251B2, “Amidines and amidine analogs for the treatment of bacterial infections and potentiation antibiotics” (GEORGIA STATE UNIVERSITY RESEARCH FOUNDATION, INC., priority 2018, dated 2026).
In brackets after ≈: the same amount, converted by molar mass. Counter-ions that a name gives are not always drawn.

These compounds were tested on E. coli (assay: Sensitization of E. coli to erythromycin (sensitization fold from IC90, OD600, 20 h)). Conditions: erythromycin; compound at 10 μM.
Assay type: cell-based, Escherichia coli
Protocol: E. coli bacteria were cultured in Miller's broth at 37° C. overnight prior to treatment. B. subtilis bacteria were cultured in nutrient broth at 37° C. overnight prior to treatment. […] Bacterial density was measured based on OD600.

| Structure (SMILES) | SF (E. coli) at 10 μM |
| --- | --- |
| N=C(N)c1ccc(COc2cc(OCc3ccc(C(=N)N)cc3)cc(C(F)(F)F)c2)cc1 [drawing 750] | 10 μM > 32 fold |
| CCCCc1cc(OCc2ccc(C(=N)N)cc2)cc(OCc2ccc(C(=N)N)cc2)c1 [drawing 749] | 10 μM > 32 fold |

Same assay, conditions: erythromycin; compound at 12.5 μM; NA=no activity

| Structure (SMILES) | SF (E. coli) at 12.5 μM |
| --- | --- |
| CC(C)(C)c1cc(COc2ccc(C(=N)N)cc2)cc(COc2ccc(C(=N)N)cc2)c1 [drawing 732] | 4-fold at 12.5 μM |

Same assay, conditions: erythromycin; compound at 20 μM

| Structure (SMILES) | SF (E. coli) at 20 μM |
| --- | --- |
| COc1cc(OCc2ccc(C(=N)N)cc2)cc(OCc2ccc(C(=N)N)cc2)c1 | No effect at 20 μM |
| CO/N=C(\N)c1ccc(OCc2cc(C)cc(COc3ccc(/C(N)=N\OC)cc3)c2)cc1 [drawing 748] | 4-fold at 20 μM |

Same assay, conditions: erythromycin; compound at 25 μM; NA=no activity

| Structure (SMILES) | SF (E. coli) at 25 μM |
| --- | --- |
| Cc1cc(COc2ccc(C(=N)N)cc2F)cc(COc2ccc(C(=N)N)cc2F)c1 [drawing 747] | 64-fold at 25 μM |

Same assay, conditions: general statement on amidine substitution or ring restraint

| Structure (SMILES) | Ability to sensitize Gram-negative bacteria (while preserving ability to sensitize some Gram-positive bacteria) |
| --- | --- |
| Cc1cc(COc2ccc(C(=N)NC(C)C)cc2)cc(COc2ccc(C(=N)NC(C)C)cc2)c1 [Compound C-3, 1,3-Bis {(4-isopropylamidino)-phenoxymethyl}-5-methylbenzene dihydrochloride] | greatly decrease, or even abolish |

Same assay, conditions: sensitization fold = IC90 of erythromycin without/with compound; compound concentration not given; NA=no activity, T=toxic

| Structure (SMILES) | SF (E. coli) |
| --- | --- |
| N=C(N)c1ccc(OCc2ccc(-c3ccc(C(=N)N)cc3)cc2)cc1 [drawing 711] | <2 |
| N=C(N)c1ccc2nc(-c3ccc(OCC(F)(F)C(F)(F)COc4ccc(-c5nc6ccc(C(=N)N)cc6[nH]5)cc4)cc3)[nH]c2c1 [drawing 706] | <2 |
| N=C(N)c1ccc(OCc2cccc(COc3ccc(C(=N)N)cc3)c2F)cc1 [drawing 718] | <2 |
| Cc1cc(-c2nc3cc(C(=N)N)ccc3n2C)sc1-c1ccc(OCCCCOc2ccc(C(=N)N)cc2)cc1 [drawing 715] | <2 |
| N=C(N)c1ccc(OCc2cccc(COc3ccc(C(=N)N)cc3F)c2F)c(F)c1 [drawing 713] | 6 |
| N=C(N)c1ccc(OCc2cccc(COc3ccc(C(=N)N)cc3)c2)cc1 [drawing 712] | <2 |

Each compound was assayed on wild-type E. coli (assay: Sensitization of wild-type E. coli toward antibiotics (MIC of antibiotic with/without sensitizer)). Conditions: not given.
Assay type: cell-based, Escherichia coli
Protocol: Bacteria were cultured with the antibiotic at various concentrations in the presence or absence of bacterial sensitizer for 24 hours at 37° C. Bacterial growth density was determined by measuring OD600 (absorbance measured at a wavelength of 600 nm). […]
The formula for calculating FIC is shown below: […]

| Structure (SMILES) | Minimal concentration achieving 10-fold sensitization of E. coli toward erythromycin |
| --- | --- |
| N=C(N)c1ccc(OCCCCCOc2ccc(C(=N)N)cc2)cc1 [Pentamidine, pentamidine] | 40 μg/ml |

The compounds below were run on H9c2 cells (assay: Cytotoxicity in H9c2 cells (CCK-8, 24 h)). Conditions: not given.
Assay type: cell-based
Protocol: H9c2 (ATCC®R-1446™) cells Were used in the studies. The H9c2 cells were maintained in DMEM (Dulbeccoa's Modified Eagle's Medium) supplemented with 10% fetal bovine serum (Mid Sci; S01520HI) and 1% penicillin-streptomycin (Sigma-Aldrich; P4333) at 37° C. with 5% CO2. The H9c2 cells were seeded in 96-well plate one day before the experiment. Different concentrations of di-amidine compounds were added into the H9c2 cells. The cells were then incubated with the compounds for 24 h at 37° C. with 5% CO2. The cell viability was tested by the CCK-8. Specifically, after 24 h incubation, 10 μL CCK-8 was added to each well. After 3 h incubation at 37° C., the absorbance at 450 nm was recorded by a plate reader. The cytoxicity in HEK293 and 3T3 cells was measured using the same procedure. Data is shown in Table 5 (NT=not toxic; --=not tested).

| Structure (SMILES) | H9c2 CC^50 |
| --- | --- |
| Fc1cc(C2=NCCN2)ccc1OCc1cccc(COc2ccc(C3=NCCN3)cc2F)c1F | 50 µM |
| Fc1c(COc2ccc(C3=NCCN3)cc2)cccc1COc1ccc(C2=NCCN2)cc1 [drawing 866] | 25 µM |
| N=C(N)c1ccc(COc2cc(OCc3ccc(C(=N)N)cc3)cc(C(F)(F)F)c2)cc1 [drawing 888] | 50 µM |
| N=C(N)c1ccc2nc(-c3ccc(OCC(F)(F)C(F)(F)COc4ccc(-c5nc6ccc(C(=N)N)cc6[nH]5)cc4)cc3)[nH]c2c1 [drawing 847] | 50 µM |
| N=C(N)c1ccc(OCOc2ccc(C(=N)N)cc2)cc1 [drawing 858] | 50 µM |
| Cc1cc(-c2nc3cc(C(=N)N)ccc3n2C)sc1-c1ccc(OCCCCOc2ccc(C(=N)N)cc2)cc1 [drawing 856] | 50 µM |
| CC(C)(C)c1cc(COc2ccc(C(=N)N)cc2)cc(COc2ccc(C(=N)N)cc2)c1 [drawing 873] | 25 µM |
| COc1cc(C(=N)N)ccc1OCc1cccc(COc2ccc(C(=N)N)cc2OC)c1F [drawing 872] | 12.5 µM |
| N=C(N)c1ccc(OCc2cccc(COc3ccc(C(=N)N)cc3)n2)cc1 [drawing 857] | 50 µM |
| N=C(N)c1ccc(OCCCCCCCCOc2ccc(C(=N)N)cc2)cc1 [drawing 855] | <5 µM |
| N=C(N)c1ccc(Oc2ccc(C(=N)N)cc2)cc1 [drawing 851] | 50 µM |
| Cn1c(-c2ccc(-c3ccc(C(=N)N)cc3)s2)nc2cc(-c3ccc(C(=N)N)cc3)ccc21 [drawing 848] | 50 µM |
| N=C(N)c1ccc(OCc2ccc(-c3ccc(C(=N)N)cc3)cc2)cc1 [drawing 852] | 50 µM |
| COc1cc(C2=NCCN2)ccc1OCc1cccc(COc2ccc(C3=NCCN3)cc2OC)c1F [drawing 868] | 50 µM |
| CCCCc1cc(OCc2ccc(C(=N)N)cc2)cc(OCc2ccc(C(=N)N)cc2)c1 [drawing 887] | 25 µM |
| N=C(N)c1ccc(OCc2cccc(COc3ccc(C(=N)N)cc3)c2)cc1 [drawing 853] | 50 µM |
| N=C(N)c1ccc(OCc2cccc(COc3ccc(C(N)=O)cc3)n2)cc1 | 50 µM |
| N=C(N)c1ccc(OCc2cccc(COc3ccc(C(=N)N)cc3)c2F)cc1 [drawing 859] | 50 µM |
| Cn1c(CCc2nc3cc(C(=N)N)ccc3n2C)nc2cc(C(=N)N)ccc21 [drawing 860] | 50 µM |
| N=C(N)c1ccc(OCCCCCCOc2ccc(C(=N)N)cc2)cc1 [drawing 862] | <5 µM |
| N=C(N)c1ccc2[nH]c(-c3ccc(-c4ccc(-c5ccc(-c6ccc(-c7nc8cc(C(=N)N)ccc8[nH]7)cc6)s5)s4)cc3)nc2c1 [drawing 849] | 50 µM |
| Cc1cc(COc2ccc(NC(=N)N)cc2)cc(COc2ccc(NC(=N)N)cc2)c1 | 100 µM |
| Cn1c(CCCCc2nc3ccc(C(=N)N)cc3n2C)nc2ccc(C(=N)N)cc21 [drawing 850] | 50 µM |
| CC(C)(C)c1cc(COc2ccc(C(=N)N)cc2F)cc(COc2ccc(C(=N)N)cc2F)c1 [drawing 883] | 25 µM |
| c1cc(COc2ccc(C3=NCCN3)cc2)cc(COc2ccc(C3=NCCN3)cc2)c1 [drawing 865] | <12 µM |

What follows are compounds tested on NDM-1 over-expressing E. coli (assay: microbe, parasite or virus in culture). Conditions: Escherichia coli, antibiotic alone, read-out: MIC of AB only.
Assay type: cell-based, Escherichia coli

| Structure (SMILES) | MIC |
| --- | --- |
| CC[C@H]1OC(=O)[C@H](C)[C@@H](O[C@H]2C[C@@](C)(OC)[C@@H](O)[C@H](C)O2)[C@H](C)[C@@H](O[C@@H]2O[C@H](C)C[C@H](N(C)C)[C@H]2O)[C@](C)(OC)C[C@@H](C)C(=O)[C@H](C)[C@@H](O)[C@]1(C)O [Clarithromycin, clarithromycin] | 24 µg/mL |

Same assay, conditions: antibiotic plus Compound C 5 μg/ml

| Structure (SMILES) | FIC | MIC of AB with Compound C (5 μg/ml) |
| --- | --- | --- |
| CC[C@H]1OC(=O)[C@H](C)[C@@H](O[C@H]2C[C@@](C)(OC)[C@@H](O)[C@H](C)O2)[C@H](C)[C@@H](O[C@@H]2O[C@H](C)C[C@H](N(C)C)[C@H]2O)[C@](C)(OC)C[C@@H](C)C(=O)[C@H](C)[C@@H](O)[C@]1(C)O [Clarithromycin, clarithromycin] | 0.12 | 0.4 µg/mL |

What follows are compounds tested on M. smegmatis (assay: Antibacterial activity against M. smegmatis (MIC, OD600, 48 h)). Conditions: Mycolicibacterium smegmatis, MIC = 90% growth inhibition, 7H9 media, NA=no activity.
Assay type: cell-based, Mycobacterium smegmatis

| Structure (SMILES) | MIC |
| --- | --- |
| N=C(N)c1ccc(OCc2cccc(COc3ccc(C(=N)N)cc3)c2F)cc1 [drawing 806] | 12 µM (≈ 4.71 µg/mL) |
| Cc1cc(COc2ccc(C(=N)NC(C)C)cc2)cc(COc2ccc(C(=N)NC(C)C)cc2)c1 [drawing 815] | 3 µM (≈ 1.42 µg/mL) |
| N=C(N)c1ccc(OCc2ccc(-c3ccc(C(=N)N)cc3)cc2)cc1 [drawing 804] | 6 µM (≈ 2.07 µg/mL) |
| Cc1cc(CCc2ccc(C(=N)N)cc2)cc(CCc2ccc(C(=N)N)cc2)c1 [drawing 829] | 6 to 12 µM (≈ 2.31 to 4.61 µg/mL) |
| N=C(N)c1ccc2nc(-c3ccc(OCC(F)(F)C(F)(F)COc4ccc(-c5nc6ccc(C(=N)N)cc6[nH]5)cc4)cc3)[nH]c2c1 [drawing 801] | 6 µM (≈ 3.78 µg/mL) |
| COc1cc(C(=N)N)ccc1OCc1cccc(COc2ccc(C(=N)N)cc2OC)c1F [drawing 817] | 6 µM (≈ 2.71 µg/mL) |
| N=C(N)c1ccc(OCCCCCCOc2ccc(C(=N)N)cc2)cc1 [drawing 825] | 6 µM (≈ 2.13 µg/mL) |
| COc1cc(C(=N)N)ccc1OCc1cc(C)cc(COc2ccc(C(=N)N)cc2OC)c1 [drawing 816] | 25 µM (≈ 11.2 µg/mL) |
| N=C(N)c1ccc(OCc2cccc(COc3ccc(C(=N)N)cc3)n2)cc1 [drawing 823] | 12 µM (≈ 4.51 µg/mL) |
| N=C(N)c1ccc(OCc2cc(COc3ccc(C(=N)N)cc3)cc(COc3ccc(C(=N)N)cc3)c2)cc1 [drawing 828] | 3 to 6 µM (≈ 1.57 to 3.14 µg/mL) |
| CC(C)NC(=N)c1ccc(OCc2cccc(COc3ccc(C(=N)NC(C)C)cc3)c2F)cc1 [drawing 830] | 3 µM (≈ 1.43 µg/mL) |
| CC(C)(C)c1cc(COc2ccc(C(=N)N)cc2)cc(COc2ccc(C(=N)N)cc2)c1 [drawing 818] | 6 µM (≈ 2.58 µg/mL) |
| c1cc(COc2ccc(C3=NCCN3)cc2)cc(COc2ccc(C3=NCCN3)cc2)c1 [drawing 810] | 12 µM (≈ 5.12 µg/mL) |
| N=C(N)c1ccc(OCc2ccc(COc3ccc(C(=N)N)cc3)cc2)cc1 [drawing 814] | 3 µM (≈ 1.12 µg/mL) |
| Cc1cc(COc2ccc(C3=NCCN3)cc2)cc(COc2ccc(C3=NCCN3)cc2)c1 [drawing 826] | 25 µM (≈ 11 µg/mL) |
| CC(C)NC(=N)c1ccc(OCc2cccc(COc3ccc(C(=N)NC(C)C)cc3F)c2F)c(F)c1 [drawing 831] | 12 µM (≈ 6.15 µg/mL) |
| Cc1cc(-c2nc3cc(C(=N)N)ccc3n2C)sc1-c1ccc(OCCCCOc2ccc(C(=N)N)cc2)cc1 [drawing 822] | 3 to 6 µM (≈ 1.66 to 3.32 µg/mL) |
| Cc1cc(COc2ccc(C(=N)N)cc2)cc(COc2ccc(C(=N)N)cc2)c1 [drawing 809] | 12 µM (≈ 4.66 µg/mL) |
| N=C(N)c1ccc(OCc2cccc(COc3ccc(C(=N)N)cc3F)c2F)c(F)c1 [drawing 805] | 12 µM (≈ 5.14 µg/mL) |
| COc1cc(C2=NCCN2)ccc1OCc1cccc(COc2ccc(C3=NCCN3)cc2OC)c1F [drawing 813] | 25 µM (≈ 12.6 µg/mL) |
| Fc1c(COc2ccc(C3=NCCN3)cc2)cccc1COc1ccc(C2=NCCN2)cc1 [drawing 811] | 25 µM (≈ 11.1 µg/mL) |
| N=C(N)c1ccc(OCc2cccc(COc3ccc(C(=N)N)cc3)c2)cc1 [drawing 821] | 12 µM (≈ 4.49 µg/mL) |
| Cn1c(-c2ccc(-c3ccc(C(=N)N)cc3)s2)nc2cc(-c3ccc(C(=N)N)cc3)ccc21 [drawing 819] | 6 µM (≈ 2.7 µg/mL) |
